# From ChEMBL document CHEMBL4665629, “An optimised series of substituted N-phenylpyrrolamides as DNA gyrase B inhibitors” (Eur J Med Chem, 2019)
# How the values were obtained:
# Staphylococcus aureus = assay: Antibacterial activity against Staphylococcus aureus ATCC 29213 assessed as bacterial growth inhibition at 50 uM incubated for 24 hrs by CLSI protocol based broth microdilution assay relative to control; type: functional
# Acinetobacter baumannii = assay: Antibacterial activity against Acinetobacter baumannii ATCC 19606 assessed as bacterial growth inhibition at 50 uM incubated for 24 hrs by CLSI protocol based broth microdilution assay relative to control; type: functional; settings: ATCC 19606 = CIP 70.34 = JCM 6841
# Pseudomonas aeruginosa = assay: Antibacterial activity against Pseudomonas aeruginosa ATCC 27853 assessed as bacterial growth inhibition at 50 uM incubated for 24 hrs by CLSI protocol based broth microdilution assay relative to control; type: functional
# Escherichia coli [1] = assay: Antibacterial activity against outer membrane impaired Escherichia coli JD17464 harboring lpxC mutant assessed as bacterial growth inhibition at 50 uM incubated for 24 hrs by CLSI protocol based broth microdilution assay relative to control; type: functional
# Escherichia coli [2] = assay: Antibacterial activity against Escherichia coli ATCC 25922 assessed as bacterial growth inhibition at 50 uM incubated for 24 hrs by CLSI protocol based broth microdilution assay relative to control; type: functional
# [3] = Inhibition of Escherichia coli DNA topoisomerase 4 assessed as residual activity at 1 uM using biotinylated oligonucleotide as substrate incubated for 30 mins in presence of ATP by fluorescence-based microplate reader assay relative to control
# DNA gyrase [4] = biological target: DNA gyrase (Escherichia coli, UniProt P0AES4+P0AES6); assay: Inhibition of Escherichia coli DNA gyrase using biotinylated oligonucleotide as substrate incubated for 30 mins in presence of ATP by fluorescence-based microplate reader assay; type: protein-complex assay
# Klebsiella pneumoniae = assay: Antibacterial activity against Klebsiella pneumoniae ATCC 700603 assessed as bacterial growth inhibition at 50 uM incubated for 24 hrs by CLSI protocol based broth microdilution assay relative to control; type: functional
# Escherichia coli [5] = assay: Antibacterial activity against efflux pump d effect ive Escherichia coli JW5503 harbouring tolC mutant assessed as bacterial growth inhibition at 50 uM incubated for 24 hrs by CLSI protocol based broth microdilution assay relative to control; type: functional
# [6] = biological target: DNA gyrase (Staphylococcus aureus) (UniProt P0A0K8+P20831); assay: Inhibition of Staphylococcus aureus DNA gyrase assessed as residual activity at 1 uM using biotinylated oligonucleotide as substrate incubated for 30 mins in presence of ATP by fluorescence-based microplate reader assay relative to control; type: protein-complex assay
# Sequence of DNA gyrase (Staphylococcus aureus) (P0A0K8 2-644 limits assumed): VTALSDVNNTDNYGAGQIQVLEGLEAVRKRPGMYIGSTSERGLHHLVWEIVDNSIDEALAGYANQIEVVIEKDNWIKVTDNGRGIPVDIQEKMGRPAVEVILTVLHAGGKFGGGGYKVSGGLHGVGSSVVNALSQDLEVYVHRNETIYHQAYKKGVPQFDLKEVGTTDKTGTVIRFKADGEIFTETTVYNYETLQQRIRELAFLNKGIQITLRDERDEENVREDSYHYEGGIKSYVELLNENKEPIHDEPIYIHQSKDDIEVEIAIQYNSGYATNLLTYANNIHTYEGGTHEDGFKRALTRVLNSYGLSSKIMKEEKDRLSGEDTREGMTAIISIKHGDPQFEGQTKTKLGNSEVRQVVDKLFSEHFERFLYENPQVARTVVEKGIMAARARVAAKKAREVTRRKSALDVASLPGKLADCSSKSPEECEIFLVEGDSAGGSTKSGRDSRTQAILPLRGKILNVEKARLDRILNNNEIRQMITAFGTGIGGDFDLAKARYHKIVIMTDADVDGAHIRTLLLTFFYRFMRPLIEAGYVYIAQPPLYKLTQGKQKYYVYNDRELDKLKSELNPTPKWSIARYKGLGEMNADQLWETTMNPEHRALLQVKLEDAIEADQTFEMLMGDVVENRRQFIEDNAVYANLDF
# Sequence of DNA gyrase (Staphylococcus aureus) (P20831 whole entry partner): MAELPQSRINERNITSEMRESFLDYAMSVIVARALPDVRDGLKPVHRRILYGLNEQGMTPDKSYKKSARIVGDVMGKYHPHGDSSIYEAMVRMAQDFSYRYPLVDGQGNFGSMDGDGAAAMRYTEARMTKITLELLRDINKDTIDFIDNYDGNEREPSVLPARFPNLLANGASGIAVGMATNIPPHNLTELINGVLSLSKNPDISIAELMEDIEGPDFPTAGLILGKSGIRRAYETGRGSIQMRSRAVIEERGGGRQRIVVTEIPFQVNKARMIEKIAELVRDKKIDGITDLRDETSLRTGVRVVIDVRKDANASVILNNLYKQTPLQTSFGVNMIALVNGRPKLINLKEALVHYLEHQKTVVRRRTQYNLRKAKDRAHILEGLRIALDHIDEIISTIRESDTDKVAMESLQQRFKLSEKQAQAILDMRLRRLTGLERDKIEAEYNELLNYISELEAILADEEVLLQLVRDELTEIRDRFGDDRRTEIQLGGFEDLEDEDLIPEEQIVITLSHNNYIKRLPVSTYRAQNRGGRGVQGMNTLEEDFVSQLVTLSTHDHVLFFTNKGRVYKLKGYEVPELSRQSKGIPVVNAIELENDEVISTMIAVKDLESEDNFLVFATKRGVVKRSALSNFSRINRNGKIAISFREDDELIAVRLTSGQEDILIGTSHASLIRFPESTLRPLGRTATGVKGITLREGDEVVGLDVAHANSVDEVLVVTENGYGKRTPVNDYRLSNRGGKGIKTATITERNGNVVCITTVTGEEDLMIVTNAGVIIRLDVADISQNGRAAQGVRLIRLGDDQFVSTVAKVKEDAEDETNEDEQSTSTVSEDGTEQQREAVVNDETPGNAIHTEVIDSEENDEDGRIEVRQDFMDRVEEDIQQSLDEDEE
# Enterococcus faecium [7] = assay: Antibacterial activity against Enterococcus faecium ATCC 35667 assessed as bacterial growth inhibition at 50 uM incubated for 24 hrs by CLSI protocol based broth microdilution assay relative to control; type: functional
# Enterococcus faecium [8] = assay: Antibacterial activity against Enterococcus faecium ATCC 35667 assessed as minimum inhibitory concentration required for >=90% inhibition of bacterial growth by CLSI protocol based broth microdilution assay; type: functional
# Topoisomerase IV = Topoisomerase IV (Staphylococcus aureus, UniProt P0C1S7+P0C1U9); assay: Inhibition of Staphylococcus aureus DNA topoisomerase 4 using biotinylated oligonucleotide as substrate incubated for 30 mins in presence of ATP by fluorescence-based microplate reader assay; type: protein-complex assay
# Sequence of Topoisomerase IV (P0C1U9 whole entry): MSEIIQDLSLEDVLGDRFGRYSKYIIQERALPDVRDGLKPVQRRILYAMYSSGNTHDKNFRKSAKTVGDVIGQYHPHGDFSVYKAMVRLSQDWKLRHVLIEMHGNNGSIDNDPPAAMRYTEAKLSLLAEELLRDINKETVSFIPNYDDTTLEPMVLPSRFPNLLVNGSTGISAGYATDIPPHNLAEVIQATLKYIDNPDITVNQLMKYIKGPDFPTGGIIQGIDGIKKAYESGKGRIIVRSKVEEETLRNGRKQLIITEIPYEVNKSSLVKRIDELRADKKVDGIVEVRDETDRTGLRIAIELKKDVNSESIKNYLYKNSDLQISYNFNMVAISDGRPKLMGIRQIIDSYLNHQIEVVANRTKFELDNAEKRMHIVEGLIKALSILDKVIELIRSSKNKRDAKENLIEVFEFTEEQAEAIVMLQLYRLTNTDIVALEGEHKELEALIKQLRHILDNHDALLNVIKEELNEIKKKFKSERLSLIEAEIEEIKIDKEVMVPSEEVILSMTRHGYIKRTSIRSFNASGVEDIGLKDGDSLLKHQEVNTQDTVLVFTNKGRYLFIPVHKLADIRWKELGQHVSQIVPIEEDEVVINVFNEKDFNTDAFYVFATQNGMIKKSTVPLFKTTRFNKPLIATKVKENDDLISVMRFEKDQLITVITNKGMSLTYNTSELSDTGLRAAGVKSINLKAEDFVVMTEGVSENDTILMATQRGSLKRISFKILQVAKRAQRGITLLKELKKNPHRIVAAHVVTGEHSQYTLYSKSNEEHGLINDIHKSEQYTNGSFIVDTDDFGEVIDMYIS
# Sequence of Topoisomerase IV (P0C1S7 whole entry): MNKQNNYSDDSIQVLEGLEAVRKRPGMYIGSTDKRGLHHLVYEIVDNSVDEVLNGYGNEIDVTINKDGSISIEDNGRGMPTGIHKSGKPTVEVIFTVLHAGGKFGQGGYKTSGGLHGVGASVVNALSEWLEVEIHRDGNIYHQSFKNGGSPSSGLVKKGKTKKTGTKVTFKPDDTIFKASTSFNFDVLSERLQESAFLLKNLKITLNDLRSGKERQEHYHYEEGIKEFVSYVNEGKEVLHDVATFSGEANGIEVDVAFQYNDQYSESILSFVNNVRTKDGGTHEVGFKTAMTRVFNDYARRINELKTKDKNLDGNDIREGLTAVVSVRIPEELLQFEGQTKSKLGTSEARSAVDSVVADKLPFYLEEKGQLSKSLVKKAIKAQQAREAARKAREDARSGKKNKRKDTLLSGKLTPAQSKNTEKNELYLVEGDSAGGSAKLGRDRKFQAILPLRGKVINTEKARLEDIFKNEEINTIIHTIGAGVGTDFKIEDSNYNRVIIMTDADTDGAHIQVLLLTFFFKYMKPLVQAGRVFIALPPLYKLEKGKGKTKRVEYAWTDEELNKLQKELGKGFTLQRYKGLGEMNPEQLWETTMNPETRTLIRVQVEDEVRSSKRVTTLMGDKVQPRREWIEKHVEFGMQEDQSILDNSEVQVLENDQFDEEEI
# Klebsiella aerogenes = assay: Antibacterial activity against Enterobacter aerogenes ATCC 13408 assessed as bacterial growth inhibition at 50 uM incubated for 24 hrs by CLSI protocol based broth microdilution assay relative to control; type: functional
# Escherichia coli [9] = assay: Antibacterial activity against efflux pump d effect ive Escherichia coli JW5503 harbouring tolC mutant assessed as minimum inhibitory concentration required for >=90% inhibition of bacterial growth by CLSI protocol based broth microdilution assay; type: functional
# [10] = biological target: Topoisomerase IV (Staphylococcus aureus) (UniProt P0C1U9+P0C1S7); assay: Inhibition of Staphylococcus aureus DNA topoisomerase 4 assessed as residual activity at 1 uM using biotinylated oligonucleotide as substrate incubated for 30 mins in presence of ATP by fluorescence-based microplate reader assay relative to control; type: protein-complex assay
# Enterococcus faecalis [11] = assay: Antibacterial activity against Enterococcus faecalis ATCC 29212 assessed as minimum inhibitory concentration required for >=90% inhibition of bacterial growth by CLSI protocol based broth microdilution assay; type: functional
# [12] = Cytotoxicity against human HepG2 cells assessed as reduction in cell proliferation at 50 uM after 72 hrs by MTS assay relative to control; type: cell-based; settings: read-out: Activity
# Enterococcus faecalis [13] = assay: Antibacterial activity against Enterococcus faecalis ATCC 29212 assessed as bacterial growth inhibition at 50 uM incubated for 24 hrs by CLSI protocol based broth microdilution assay relative to control; type: functional
# [14] = Cytotoxicity against HUVEC assessed as reduction in cell proliferation at 50 uM after 72 hrs by MTS assay relative to control; type: cell-based; settings: human, HUVEC cells, read-out: Activity
# [15] = Inhibition of Escherichia coli DNA topoisomerase 4 using biotinylated oligonucleotide as substrate incubated for 30 mins in presence of ATP by fluorescence-based microplate reader assay
# DNA gyrase [16] = biological target: DNA gyrase (Staphylococcus aureus, UniProt P0A0K8+P20831); assay: Inhibition of Staphylococcus aureus DNA gyrase using biotinylated oligonucleotide as substrate incubated for 30 mins in presence of ATP by fluorescence-based microplate reader assay; type: protein-complex assay
# Sequence of DNA gyrase (Staphylococcus aureus, UniProt P0A0K8+P20831) (P0A0K8 whole entry): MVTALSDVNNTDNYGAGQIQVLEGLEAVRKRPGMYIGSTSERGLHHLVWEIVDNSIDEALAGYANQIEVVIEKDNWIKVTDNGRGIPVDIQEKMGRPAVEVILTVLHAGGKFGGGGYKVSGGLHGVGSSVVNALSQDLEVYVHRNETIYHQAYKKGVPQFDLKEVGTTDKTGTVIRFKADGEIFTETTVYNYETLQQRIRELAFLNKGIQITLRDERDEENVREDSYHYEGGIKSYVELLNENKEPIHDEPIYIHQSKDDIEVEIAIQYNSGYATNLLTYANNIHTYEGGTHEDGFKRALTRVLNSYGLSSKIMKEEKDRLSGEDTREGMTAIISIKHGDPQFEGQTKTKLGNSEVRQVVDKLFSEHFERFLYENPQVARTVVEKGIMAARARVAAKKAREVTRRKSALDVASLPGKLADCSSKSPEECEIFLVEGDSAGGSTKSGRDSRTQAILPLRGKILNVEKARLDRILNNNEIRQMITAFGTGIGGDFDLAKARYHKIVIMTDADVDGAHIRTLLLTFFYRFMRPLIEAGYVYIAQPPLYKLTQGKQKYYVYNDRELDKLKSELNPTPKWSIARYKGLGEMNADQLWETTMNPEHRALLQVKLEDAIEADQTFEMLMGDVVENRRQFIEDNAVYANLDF
# Sequence of DNA gyrase (Staphylococcus aureus, UniProt P0A0K8+P20831) (P20831 whole entry): as the sequence (P20831 whole entry partner) above
# [17] = biological target: DNA gyrase (Escherichia coli) (UniProt P0AES6+P0AES4); assay: Inhibition of Escherichia coli DNA gyrase assessed as residual activity at 1 uM using biotinylated oligonucleotide as substrate incubated for 30 mins in presence of ATP by fluorescence-based microplate reader assay relative to control; type: protein-complex assay
Structure (SMILES),inhibition at 50 µM (Staphylococcus aureus),inhibition at 50 µM (Acinetobacter baumannii),inhibition at 50 µM (Pseudomonas aeruginosa),inhibition at 50 µM (Escherichia coli [1]),inhibition at 50 µM (Escherichia coli [2]),IC50 (DNA gyrase [4]),inhibition at 50 µM (Klebsiella pneumoniae),inhibition at 50 µM (Escherichia coli [5]),inhibition at 50 µM (Enterococcus faecium [7]),IC50 (Topoisomerase IV),inhibition at 50 µM (Klebsiella aerogenes),IC50 [15],IC50 (DNA gyrase [16]),also measured
Cc1[nH]c(C(=O)Nc2ccc(C(=O)N[C@@H](C)C(=O)O)cc2OC2CCN(C(=O)OC(C)(C)C)CC2)c(Cl)c1Cl,-23%,0%,19%,19%,2%,80 nM,-19%,1%,67%,830 nM,-5%,–,–,Activity [3]: 88%; Activity [6]: 26%; MIC (Enterococcus faecium [8]): > 25 µM
COC(=O)[C@@H](C)NC(=O)c1ccc(NC(=O)c2[nH]c(C)c(Cl)c2Cl)c(OC2CCNCC2)c1,8%,17%,12%,21%,8%,48 nM,-7%,97%,4%,–,-2%,–,–,MIC (Escherichia coli [9]): 6.25 µM; Activity [3]: 89%; Activity [6]: 49%; Activity [10]: 94%
Cc1[nH]c(C(=O)Nc2ccc(C(=O)N[C@H](C)c3n[nH]c(=S)o3)cc2OC(C)C)c(Cl)c1Cl,7%,6%,1%,1%,21%,190 nM,5%,40%,79%,–,10%,–,–,"MIC (Enterococcus faecalis [11]): 6.25 µM; inhibition at 72 h, 50 µM [12]: 80%; inhibition at 50 µM (Enterococcus faecalis [13]): 101%; Activity [3]: 92%; Activity [6]: 59%; inhibition at 72 h, 50 µM [14]: 85%; MIC (Enterococcus faecium [8]): > 125 µM; Activity [10]: 90%"
Cc1[nH]c(C(=O)Nc2ccc(C(=O)NCC(=O)O)cc2O[C@H]2CCNC2)c(Cl)c1Cl,-6%,-1%,-28%,18%,11%,31 nM,-3%,-1%,14%,4300 nM,-11%,16000 nM,290 nM,"inhibition at 72 h, 50 µM [12]: 46%; inhibition at 72 h, 50 µM [14]: 130%"
COC(=O)[C@H](C)NC(=O)c1ccc(NC(=O)c2[nH]c(C)c(Cl)c2Cl)c(OC2CCNCC2)c1,27%,21%,-1%,24%,14%,40 nM,0%,99%,7%,3700 nM,-4%,18000 nM,1600 nM,MIC (Escherichia coli [9]): 6.25 µM
CC(=O)NC[C@H]1CN(c2ccc(N3CCOCC3)c(F)c2)C(=O)O1 [LINEZOLID],–,–,–,–,–,–,–,–,–,–,–,–,–,MIC (Enterococcus faecium [8]): 11.9 µM
Cc1[nH]c(C(=O)Nc2ccc(C(=O)N[C@H](C)C(=O)O)cc2OC2CCNCC2)c(Cl)c1Cl,-1%,5%,-3%,14%,1%,6.9 nM,5%,35%,3%,960 nM,-3%,15000 nM,–,Activity [6]: 31%
Cc1[nH]c(C(=O)Nc2ccc(C(=O)NCC(=O)O)cc2OC2CCN(C(=O)OC(C)(C)C)CC2)c(Cl)c1Cl,-10%,-12%,-3%,-2%,9%,86 nM,-9%,-5%,-1%,7400 nM,-8%,10000 nM,1010 nM,–
Cc1[nH]c(C(=O)Nc2ccc(C(=O)NCC#N)cc2)c(Cl)c1Cl,4%,0%,30%,-8%,0%,410 nM,4%,102%,-17%,–,1%,–,–,MIC (Enterococcus faecalis [11]): 25 µM; MIC (Escherichia coli [9]): 12.5 µM; inhibition at 50 µM (Enterococcus faecalis [13]): 92%
Cc1[nH]c(C(=O)Nc2ccc(C(=O)NCC(=O)O)cc2OC2CCNCC2)c(Cl)c1Cl,3%,1%,15%,9%,-2%,17 nM,5%,37%,-1%,3700 nM,4%,7200 nM,960 nM,–
COC(=O)[C@H](C)NC(=O)c1ccc(NC(=O)c2[nH]c(C)c(Cl)c2Cl)c(OC2CCN(C(=O)OC(C)(C)C)CC2)c1,35%,23%,27%,43%,18%,–,3%,61%,73%,–,14%,–,–,Activity [17]: 83%; MIC (Enterococcus faecium [8]): > 25 µM
Cc1[nH]c(C(=O)Nc2ccc(C(=O)N[C@@H](C)C(=O)O)cc2OC2CCNCC2)c(Cl)c1Cl,-11%,2%,9%,12%,7%,9.9 nM,5%,9%,-10%,690 nM,-2%,9100 nM,99 nM,–
COC(=O)CNC(=O)c1ccc(NC(=O)c2[nH]c(C)c(Cl)c2Cl)c(O[C@H]2CCNC2)c1,5%,2%,4%,26%,4%,74 nM,-5%,88%,13%,–,-3%,–,950 nM,MIC (Escherichia coli [9]): 25 µM; Activity [3]: 90%; Activity [10]: 94%
CCOC(=O)c1cn(CC)c2cc(NC(=O)c3[nH]c(C)c(Cl)c3Cl)ccc2c1=O,-3%,3%,-3%,-2%,12%,53 nM,9%,11%,37%,–,5%,–,–,"inhibition at 72 h, 50 µM [12]: 90%; inhibition at 50 µM (Enterococcus faecalis [13]): -7%; inhibition at 72 h, 50 µM [14]: 88%"
Cc1[nH]c(C(=O)Nc2ccc(C(=O)N[C@H](C)C(=O)NN)cc2OC(C)C)c(Cl)c1Cl,46%,25%,-2%,31%,21%,–,14%,38%,49%,–,16%,–,–,MIC (Enterococcus faecalis [11]): 12.5 µM; inhibition at 50 µM (Enterococcus faecalis [13]): 85%; Activity [17]: 89%
